The values below are quoted from earlier work in US20200390965A1, “TAILORED DOSE OF CONTRAST AGENT” (GE HEALTHCARE AS, priority 2017, published 2020).

For this data set the following is noted: powder form; aggregates dissolve very slowly.

`CC(=O)N(CC(O)CO)c1c(I)c(C(=O)NCC(O)CO)c(I)c(C(=O)NCC(O)CO)c1I` (centres unmarked) [iohexol]: the solubility in water result is on record as “highly soluble in water”.

Consider `CC(=O)N(CC(O)CN(C(C)=O)c1c(I)c(C(=O)NCC(O)CO)c(I)c(C(=O)NCC(O)CO)c1I)c1c(I)c(C(=O)NCC(O)CO)c(I)c(C(=O)NCC(O)CO)c1I` (centres unmarked) [iodixanol], for which the solubility in water entry is reported as “highly soluble in water”.
